Measured values reported in ChEMBL document CHEMBL1201862, “PubChem BioAssay data set” (2004).
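Each compound was tested at five concentrations against cells in 96-well plates for 48 hours. GI50 is the concentration that inhibits growth by half.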 Calls of active or inactive are those of the source. No stated cut-off is given here; in the data, active = GI50 up to about 1.1 µM and inactive = higher.

Legend:
Assay in all cases: NCI anticancer screen, dose series, 48 h
786-0 = system: 786-0
A498 = system: A498
A549 = system: A549
ACHN = system: ACHN
CAKI-1 = system: CAKI-1
CCRF-CEM = system: CCRF-CEM
COLO 205 = system: COLO 205
DLD-1 = system: DLD-1
DMS-114 = system: DMS-114
DMS-273 = system: DMS-273
EKVX = system: EKVX
HCC 2998 = system: HCC 2998
HCT-116 = system: HCT-116
HCT-15 = system: HCT-15
HL-60 = system: HL-60
HOP-18 = system: HOP-18
HOP-62 = system: HOP-62
HOP-92 = system: HOP-92
HT-29 = system: HT-29
IGROV-1 = system: IGROV-1
K562 = system: K562
KM-20L2 = system: KM-20L2
KM12 = system: KM12
LOX IMVI = system: LOX IMVI
LXFL 529 = system: LXFL 529
M14 = system: M14
M19-MEL = system: M19-MEL
MOLT-4 = system: MOLT-4
Malme-3M = system: Malme-3M
NCI-H226 = system: NCI-H226
NCI-H23 = system: NCI-H23
NCI-H460 = system: NCI-H460
NCI-H522 = system: NCI-H522
OVCAR-3 = system: OVCAR-3
OVCAR-4 = system: OVCAR-4
OVCAR-5 = system: OVCAR-5
OVCAR-8 = system: OVCAR-8
RPMI-8226 = system: RPMI-8226
RXF 631 = system: RXF 631
SF-268 = system: SF-268
SF-295 = system: SF-295
SF-539 = system: SF-539
SK-MEL-28 = system: SK-MEL-28
SK-MEL-2 = system: SK-MEL-2
SK-MEL-5 = system: SK-MEL-5
SN12C = system: SN12C
SNB-19 = system: SNB-19
SNB-75 = system: SNB-75
SNB-78 = system: SNB-78
SR = system: SR
SW-620 = system: SW-620
TK-10 = system: TK-10
U-251 = system: U-251
UACC-257 = system: UACC-257
UACC-62 = system: UACC-62
UO-31 = system: UO-31
XF498 = system: XF498

For `C=CCc1cc2cccc(OC)c2oc1=O`, the GI50 (786-0) was > 100 µM (inactive), the GI50 (A498) was > 100 µM (inactive) and the GI50 (A549) was > 100 µM (inactive). For the same compound, the GI50 (ACHN) was > 100 µM (inactive), the GI50 (CAKI-1) was > 100 µM (inactive) and the GI50 (CCRF-CEM) was 45.2 µM (inactive). For the same compound, the GI50 (COLO 205) was > 100 µM (inactive), the GI50 (DLD-1) was > 100 µM (inactive) and the GI50 (DMS-114) was 80.5 µM (inactive). The GI50 (DMS-273) was > 100 µM (inactive), the GI50 (EKVX) was 44.3 µM (inactive) and the GI50 (HCC 2998) was > 100 µM (inactive). For the same compound, the GI50 (HCT-116) was > 100 µM (inactive), the GI50 (HCT-15) was > 100 µM and the GI50 (HL-60) was 34.8 µM (inactive). For the same compound, the GI50 (HOP-18) was 73.6 µM (inactive), the GI50 (HOP-62) was > 100 µM (inactive) and the GI50 (HOP-92) was 92.3 µM (inactive). The GI50 (HT-29) was > 100 µM (inactive), the GI50 (IGROV-1) was > 100 µM (inactive) and the GI50 (K562) was 75.5 µM (inactive). The GI50 (KM-20L2) was > 100 µM (inactive), the GI50 (KM12) was > 100 µM (inactive) and the GI50 (LOX IMVI) was 93.3 µM (inactive). For the same compound, the GI50 (LXFL 529) was 57 µM (inactive), the GI50 (M14) was > 100 µM (inactive) and the GI50 (M19-MEL) was > 100 µM (inactive). For the same compound, the GI50 (MOLT-4) was 63.4 µM (inactive), the GI50 (Malme-3M) was > 100 µM (inactive) and the GI50 (NCI-H226) was > 100 µM (inactive). For the same compound, the GI50 (NCI-H23) was > 100 µM (inactive), the GI50 (NCI-H460) was > 100 µM (inactive) and the GI50 (NCI-H522) was 6.9 µM (inactive). For the same compound, the GI50 (OVCAR-3) was > 100 µM (inactive), the GI50 (OVCAR-4) was > 100 µM (inactive) and the GI50 (OVCAR-5) was 66.1 µM (inactive). For the same compound, the GI50 (OVCAR-8) was > 100 µM (inactive), the GI50 (RPMI-8226) was > 100 µM (inactive) and the GI50 (RXF 631) was > 100 µM (inactive). For the same compound, the GI50 (SF-268) was > 100 µM (inactive), the GI50 (SF-295) was > 100 µM (inactive) and the GI50 (SF-539) was > 100 µM (inactive). For the same compound, the GI50 (SK-MEL-28) was > 100 µM (inactive), the GI50 (SK-MEL-2) was > 100 µM (inactive) and the GI50 (SK-MEL-5) was 87.3 µM (inactive). The GI50 (SN12C) was > 100 µM (inactive), the GI50 (SNB-19) was > 100 µM (inactive) and the GI50 (SNB-75) was 87.5 µM (inactive). The GI50 (SNB-78) was > 100 µM (inactive), the GI50 (SR) was 44.3 µM (inactive) and the GI50 (SW-620) was > 100 µM (inactive). For the same compound, the GI50 (TK-10) was > 100 µM (inactive), the GI50 (U-251) was > 100 µM (inactive) and the GI50 (UACC-257) was > 100 µM (inactive). For the same compound, the GI50 (UACC-62) was > 100 µM (inactive), the GI50 (UO-31) was 1.19 µM (inactive) and the GI50 (XF498) was 7.24 µM (inactive).
